From patent publication US7235588B2, “Method for reducing hypertension and heart failure” (The Research Foundation of State University of New York, priority 2001, dated 2007)
“Also recorded” adds a separate entry of the source. Where two headings read alike, the source gives them in different places.

Assays:
Jak2 [1] = molecular target: Jak2 (Homo sapiens, UniProt O60674); conditions: cited from earlier work
angiotensinogen mRNA [2] = experiment: Angiotensinogen mRNA expression in vivo in rat liver (northern blot); conditions: daily treatment to achieve 5 μM systemically, 10 days
Protocol: Tyrphostin AG490 was administered to rats in vivo. A subcutaneous pump was surgically placed with a catheter extended intraperitoneally. Rats were daily treated with tyrphostin AG490 to achieve a 5 μM concentration systemically. After 10 days, the animals were euthanized using approved animal protocols and the liver collected to isolate RNA. The isolated RNA was used to perform a northern blot and the nitrocellulose membrane was probed with the rat angiotensinogen cDNA. Loading control was performed using GAPDH as probe.

[3] = system: spontaneously hypertensive rats; experiment: Blood pressure in spontaneously hypertensive rats; type: in vivo, rat; conditions: 5 micromoles, FIG. 9
Protocol: Adult spontaneously hypertensive rats, which are genetically predisposed to hypertension, and normotensive rats were anesthetized with pentobarbital sodium (65 mg/kg ip) in preparation for surgery. […] Teflon arterial catheter (ID […]) was inserted into the left femoral artery. The catheter was tunneled under the skin and exited at the nape of the rat's neck and connected to a 26 G needle capped on a port and flushed with 1:3 heparin saline. The rats were housed individually after surgery, and allowed 48 hours to recover from the operation. Systolic and diastolic blood pressure were directly measured using the connection to the port placed in the rat's neck to a manual transducer.

angiotensinogen mRNA [4] = experiment: Angiotensinogen mRNA in hearts subjected to ischemia/reperfusion (primer extension assay); design: species or system rat; conditions: 30 min ischemia and 120 min reperfusion
Protocol: Ischemia was induced by a modified Langendorf-reperfusion method in rat hearts. Hearts from adult male rats were randomly divided into 4 groups and subjected to ischemia/reperfusion. In the ischemic group, hearts were perfused with Krebs-Henseleit buffer for 60 minutes, followed by 30 minutes of global ischemia. In the ischemic/reperfused group, hearts were perfused for 60 minutes, followed by 30 minutes of global ischemia and 120 minutes of reperfusion. Control group hearts were perfused for the same lengths of time.
Rat hearts subjected to ischemia/reperfusion were tested to determine whether activation of the renin-angiotensin system, as reflected by an increase in angiotensinogen mRNA, occurs in ischemic injury. The level of angiotensinogen mRNA was analyzed by primer extension assay using gene-specific DNA probes. A DNA primer spanning the complementary sequence of the rat angiotensinogen cDNA between nucleotides 302 and 279 (5′-[…]-3′) SEQ ID NO: 1 was end-labeled and used to evaluate the expression of angiotensinogen mRNA in total RNA isolated from the rat heart. The primer extension protocol was performed according to instructions provided by the supplier (Progema). Rat GAPDH cDNA specific primer was used as control. There was a marked increase in mRNA level after 30 minutes of ischemia and 120 minutes of reperfusion (FIG. 5A). […]

[5] = system: hearts subjected to ischemia/reperfusion; conditions: cited from earlier work
cardiomyocytes = experiment: Cardiomyocyte apoptosis by TUNEL after ischemia/reperfusion; design: species or system rat; conditions: FIG. 4C
Protocol: Immunohistochemical detection of apoptotic cells was carried out by use of terminal dUTP nick end-labeling (TUNEL), in which residues of digoxigenin-labeled dUTP are catalytically incorporated into the DNA by terminal deoxynucleotidyl transferase II. The cells were incubated with a sheep polyclonal anti-digoxigenin antibody followed by a FITC-conjugated rabbit anti-sheep IgG as a secondary antibody. The heart sections were washed in PBS 3 times, blocked with normal rabbit serum, and incubated with mouse monoclonal antibody recognizing cardiac myosin heavy chain (Biogenesis Ltd) followed by staining with TRIRC-conjugated rabbit anti-mouse IgG ([…] dilution, Dalco, Japan). The fluorescence staining was viewed with a confocal laser microscope (Olympus Co). The apoptoic cells were counted and expressed as percentage of total myocyte population. Ischemia was induced by a modified Langendorf-reperfusion method in rat hearts. Hearts from adult male rats were randomly divided into 4 groups and subjected to ischemia/reperfusion. In the ischemic group, hearts were perfused with Krebs-Henseleit buffer for 60 minutes, followed by 30 minutes of global ischemia. In the ischemic/reperfused group, hearts were perfused for 60 minutes, followed by 30 minutes of global ischemia and 120 minutes of reperfusion. Control group hearts were perfused for the same lengths of time.

Jak2 [6] = molecular target: T1, Jak2 (Rattus norvegicus, UniProt Q62689); experiment: Phosphotyrosine assay of Jak2 in hearts subjected to ischemia/reperfusion; conditions: ischemic heart, FIG. 6A
T1 construct: nuclear extracts from hearts subjected to ischemia/reperfusion in presence of absence of tyrphostin AG490 were immunoprecipitated; from tissue; host or cells: rat heart (nuclear extracts)
Protocol: Rats were pretreated with 5 or 50 μmol/L of tyrphostin AG490 24 h prior to ischemia/reperfusion followed by chronic administration of tyrphostin AG490 during the process of ischemia/reperfusion. A phosphotyrosine assay was performed. Briefly, nuclear extracts from hearts subjected to ischemia/reperfusion in presence of absence of tyrphostin AG490 were immunoprecipitated with anti-phosphotyrosine antibodies (4G10). Fifty microliters of 50% protein A-agarose, prewashed in lysis buffer (Upstate Biotechnology) was then added and the mixture was incubated for 2 hr at 4° C. Each sample was washed with washing buffer containing 150 mM NaCl, 50 mM Tris-HCL (pH 7.4), 5 mM EDTA, 0.25% Triton X-100, 2 mM phenylmethylsulfonyl fluoride, aprotinin (0.2 unit/ml), 1 mM Na3VO4, and 1 mM NaF. Samples were eluted in 2× Laernmli's sample buffer. Proteins were separated on a 7.5% SDS/polyacrylamide gel and transferred to nitrocellulose membrane, Nitropure (Micron Separations, Westboro, Mass.). Blots were probed with polyclonal antibody against Jak2 and developed according to the chemiluminescence protocol. Administration of tyrphostin AG490 in perfusion medium was inhibitory at both 5 and 50 μmol/L for pliosphorylation of Jak2, which was activated readily in the ischemic heart in absence of the inhibitor (FIG. 6A).

Chain of Jak2 (Homo sapiens, UniProt O60674) (O60674 whole entry, species assumed): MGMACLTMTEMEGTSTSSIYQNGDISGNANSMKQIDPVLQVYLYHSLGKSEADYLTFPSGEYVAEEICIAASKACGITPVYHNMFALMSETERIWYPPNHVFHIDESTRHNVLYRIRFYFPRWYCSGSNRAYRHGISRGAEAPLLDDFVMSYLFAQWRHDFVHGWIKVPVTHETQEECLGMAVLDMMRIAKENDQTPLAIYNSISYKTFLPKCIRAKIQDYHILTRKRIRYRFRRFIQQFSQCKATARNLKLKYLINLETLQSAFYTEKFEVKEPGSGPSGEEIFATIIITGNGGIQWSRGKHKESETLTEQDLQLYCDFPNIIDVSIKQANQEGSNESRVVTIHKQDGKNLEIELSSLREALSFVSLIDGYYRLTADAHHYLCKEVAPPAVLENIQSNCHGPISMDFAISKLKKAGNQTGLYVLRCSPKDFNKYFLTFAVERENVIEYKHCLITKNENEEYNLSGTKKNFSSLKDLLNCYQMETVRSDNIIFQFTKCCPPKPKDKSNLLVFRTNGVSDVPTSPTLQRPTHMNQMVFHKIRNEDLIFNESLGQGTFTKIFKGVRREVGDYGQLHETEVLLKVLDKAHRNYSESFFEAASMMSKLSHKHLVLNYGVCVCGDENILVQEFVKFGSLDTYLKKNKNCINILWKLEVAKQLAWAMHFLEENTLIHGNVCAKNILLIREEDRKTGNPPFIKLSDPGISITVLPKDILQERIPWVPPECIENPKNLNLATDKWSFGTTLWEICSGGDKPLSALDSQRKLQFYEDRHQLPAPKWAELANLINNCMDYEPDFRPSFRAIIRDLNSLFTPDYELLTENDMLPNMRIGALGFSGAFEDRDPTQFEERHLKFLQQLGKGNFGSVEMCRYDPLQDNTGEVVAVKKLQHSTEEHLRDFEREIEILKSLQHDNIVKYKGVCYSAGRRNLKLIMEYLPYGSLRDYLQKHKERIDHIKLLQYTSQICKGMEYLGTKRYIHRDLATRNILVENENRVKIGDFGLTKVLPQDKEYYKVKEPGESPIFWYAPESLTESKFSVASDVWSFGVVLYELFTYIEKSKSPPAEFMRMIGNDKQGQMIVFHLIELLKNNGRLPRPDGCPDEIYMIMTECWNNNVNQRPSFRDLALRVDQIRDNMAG
T1 sequence (Q62689 whole entry, the tested form may be a part): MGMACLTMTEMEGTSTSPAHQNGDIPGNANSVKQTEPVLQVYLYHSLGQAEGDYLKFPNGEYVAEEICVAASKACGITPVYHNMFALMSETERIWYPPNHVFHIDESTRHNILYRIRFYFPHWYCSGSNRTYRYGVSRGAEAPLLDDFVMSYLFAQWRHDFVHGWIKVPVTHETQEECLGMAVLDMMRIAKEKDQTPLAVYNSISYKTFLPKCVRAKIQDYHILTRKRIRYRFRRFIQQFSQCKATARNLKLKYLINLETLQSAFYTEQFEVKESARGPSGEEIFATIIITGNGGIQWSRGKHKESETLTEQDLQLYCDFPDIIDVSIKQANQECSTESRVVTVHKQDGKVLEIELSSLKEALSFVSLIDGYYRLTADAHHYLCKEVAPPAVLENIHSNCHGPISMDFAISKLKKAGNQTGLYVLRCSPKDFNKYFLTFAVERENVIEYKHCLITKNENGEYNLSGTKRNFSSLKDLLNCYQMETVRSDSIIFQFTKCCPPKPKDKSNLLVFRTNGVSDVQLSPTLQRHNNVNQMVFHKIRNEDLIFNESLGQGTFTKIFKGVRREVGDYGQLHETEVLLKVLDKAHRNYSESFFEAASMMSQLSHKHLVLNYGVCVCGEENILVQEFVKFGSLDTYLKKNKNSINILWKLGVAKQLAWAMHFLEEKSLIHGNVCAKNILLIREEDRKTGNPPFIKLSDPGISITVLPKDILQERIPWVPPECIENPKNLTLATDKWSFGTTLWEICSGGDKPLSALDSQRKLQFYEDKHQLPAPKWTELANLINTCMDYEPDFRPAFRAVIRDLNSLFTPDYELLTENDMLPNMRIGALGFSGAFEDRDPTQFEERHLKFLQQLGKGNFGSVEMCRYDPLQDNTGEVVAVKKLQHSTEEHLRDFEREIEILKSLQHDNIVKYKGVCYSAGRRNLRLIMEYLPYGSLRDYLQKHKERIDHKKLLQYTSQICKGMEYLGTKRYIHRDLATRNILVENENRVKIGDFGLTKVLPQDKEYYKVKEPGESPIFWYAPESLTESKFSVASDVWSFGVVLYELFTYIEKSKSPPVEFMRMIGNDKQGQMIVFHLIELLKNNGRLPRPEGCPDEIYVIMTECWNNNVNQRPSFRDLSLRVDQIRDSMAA

## N#C/C(=C\c1ccc(O)c(O)c1)C(=O)NCc1ccccc1 [tyrphostin AG490]
Jak2 [1]; listed as AG490
  Jak2 inhibition, selectivity: selectively inhibits Jak2
Jak2 [1]; listed as Tyrphostin AG490
  Jak2 inhibition, selectivity: selective, specific, and potent
Angiotensinogen mRNA [2]
  expression of angiotensinogen gene product mRNA: abolished the expression of angiotensinogen gene product mRNA; also recorded: attenuation of angiotensinogen mRNA expression
[3]
  blood pressure: effective in lowering blood pressure to normal levels; also recorded: attenuation of hypertension
Angiotensinogen mRNA [4]
  angiotensinogen mRNA level: inhibited the stimulation of the angiotensinogen mRNA level; also recorded: inhibition of angiotensinogen mRNA
[5]
  cardioprotection / myocardial damage due to ischemia: afford cardioprotection
cardiomyocytes
  apoptotic cell death of cardiomyocytes: marked lowering of apoptotic cell death; also recorded: reduction of apoptosis of cardiomyocytes
Jak2 [6]; 5 μmol/L in perfusion medium
  phosphorylation of Jak2: inhibitory
Jak2 [6]; 50 μmol/L in perfusion medium
  phosphorylation of Jak2: inhibitory
